# Assay results: patent publication US8163931B2, “Treatment of CRTH2-mediated diseases and conditions” (Oxagen Limited, priority 2003, dated 2012)
# Biological target: T1, CRTH2 (Homo sapiens, UniProt Q9Y5Y4)
# T1 construct: expressed in transfected cells; host or cells: Chinese Hamster Ovary (CHO) cells, G418-selected (CHO/CRTH2)
# T1 sequence (Q9Y5Y4 1-395): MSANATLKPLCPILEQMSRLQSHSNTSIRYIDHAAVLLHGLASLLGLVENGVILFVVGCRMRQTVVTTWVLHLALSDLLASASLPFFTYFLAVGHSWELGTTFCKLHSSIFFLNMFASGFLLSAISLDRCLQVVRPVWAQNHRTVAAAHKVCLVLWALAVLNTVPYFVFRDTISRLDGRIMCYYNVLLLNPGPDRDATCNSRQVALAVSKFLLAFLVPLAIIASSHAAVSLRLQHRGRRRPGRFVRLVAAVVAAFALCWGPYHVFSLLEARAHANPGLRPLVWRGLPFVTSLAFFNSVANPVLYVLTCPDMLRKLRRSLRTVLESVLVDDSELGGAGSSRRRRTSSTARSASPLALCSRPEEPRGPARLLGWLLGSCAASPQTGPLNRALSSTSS
# Test: [3H]PGD2 radioligand binding on CHO/CRTH2 cell membranes
# Conditions: competition versus [3H]PGD2, CHO/CRTH2 membranes
# Procedure: (§1) Chinese Hamster Ovary cells were transfected with CRTH2 or DP receptors (CHO/CRTH2 and CHO/DP) and were maintained in culture in a humidified atmosphere at 37° C. (5% CO2) in Minimum Essential Medium (MEM) supplemented with 10% foetal bovine serum, 2 mM glutamine, and 1 mg ml^−1 active G418. The cells were passaged every 2-3 days. For radioligand binding assay, cells were prepared in triple-layer flasks or in 175 cm^2 square flasks (for membrane preparation). For calcium mobilisation assay, cells were grown in a 96 well plate 24 h prior to the assay at a density of 80,000 cells per well.
# (§2) Membranes were prepared either from CHO/CRTH2 and CHO/DP cells, or from platelets (as a source of TP receptors). CHO cells grown to confluency were washed with PBS and detached using a Versene solution (15 ml per flask). When the cells were grown in 175 cm^2 square flask, they were collected by scrapping in PBS. The cell suspensions were centrifuged (1,700 rpm, 10 min, 4° C.) and resuspended in 15 ml of buffer (1×HBSS, supplemented with 10 mM HEPES, pH 7.3). Cell suspensions were then homogenised using an Ultra Turrax at setting 4-6 for 20 s. The homogenate was centrifuged at 1,700 rpm for 10 min and the supernatant was collected and centrifuged at 20,000 rpm for 1 h at 4° C. The resulting pellet was resuspended in buffer and stored at −80° C. in aliquots of 200-500 μl. The protein concentration was determined by the method of Bradford (1976), using bovine serum albumin as standard. The platelets were washed by centrifugation at 600×g for 10 min and resuspended in ice-cold assay buffer (10 mM Tris-HCl, pH 7.4, 5 mM Glucose, 120 mM NaCl, 10 μM indomethacin) and directly centrifuged at 20,000 rpm for 30 min at 4° C. The resulting pellet was treated as described above.
# (§3) [^3H]PGD2 (160 Ci/mmol) binding experiments were performed on membranes prepared as described above. Assays were performed in a final volume of 100 μl of buffer (1×HBSS/HEPES 10 mM, pH 7.3). Cell membranes (15 μg). Cell membranes […] were preincubated at room temperature with varying concentration of competing ligand for 15 min. [^3H]PGD2 (mol, final concentration) was then added and the incubation continued for a further one hour at room temperature. The reaction was terminated by the addition of 200 μl ice-cold assay buffer to each well, followed by rapid filtration through Whatman GF/B glass fibre filters using a Unifilter Cell harvester (PerkinElmer Life Sciences) and six washes of 300 μl of ice-cold buffer. The Unifilter plates were dried at room temperature for at least 1 h and the radioactivity retained on the filters was determined on a Beta Trilux counter (PerkinElmer Life Sciences), following addition of 40 μl of Optiphase Hi-Safe 3 (Wallac) liquid scintillation. Non specific binding was defined in the presence of 10 μM unlabelled PGD2. Assays were performed in duplicate.
row,Ki,Structure (SMILES)
1,6 ± 4 nM,"Cc1c(Cc2ccc3cccc(O)c3n2)c2cc(F)ccc2n1CC(=O)O [Compound 8, [5-Fluoro-3-(8-hydroxy-quinolin-2-ylmethyl)-2-methyl-indol-1-yl]-acetic acid]"
2,5 ± 4 nM,"Cc1c(C(C)c2ccc(S(C)(=O)=O)cc2)c2cc(F)ccc2n1CC(=O)O (stereo not shown) [Compound 4, {5-Fluoro-3-[1-(4-methanesulfonyl-phenyl)-ethyl]-2-methyl-indol-1-yl}-acetic acid]"
3,11 ± 2 nM,"Cc1c(Cc2ccc(Cl)cc2)c2cc(F)ccc2n1CC(=O)O [Compound 12, [3-(4-Chloro-benzyl)-5-fluoro-2-methyl-indol-1-yl]-acetic acid]"

# More lines, now with the values behind:
row,Structure (SMILES),Ki
1,"Cc1c(Cc2ccc3cc(F)ccc3n2)c2cc(F)ccc2n1CC(=O)O [Compound 18, [5-Fluoro-3-(6-fluoro-quinolin-2-ylmethyl)-2-methyl-indol-1-yl]-acetic acid]",1.3 ± 0.6 nM
2,"O=C(O)Cn1cc(Cc2nc3c(F)c(F)cc(F)c3s2)c2ccccc21 [Compound 20, [3-(4,5,7-Trifluoro-benzothiazol-2-ylmethyl)-indol-1-yl]-acetic acid, reference compound]",886 ± 248 nM
3,"Cc1c(Cc2nc3ccccc3s2)c2cc(F)ccc2n1CC(=O)O [Compound 13, (3-Benzothiazol-2-ylmethyl-5-fluoro-2-methyl-indol-1-yl)-acetic acid]",6 ± 1 nM

# Biological target: T1, CRTH2
# Test: Calcium mobilisation assay in CHO/CRTH2 cells (PGD2-induced calcium flux)
# Assay type: cell-based
# Conditions: agonist, n=3, read-out: EC50, increase in intracellular Ca2+ mobilisation
# Procedure: as §1
# Cells were seeded onto poly-D-lysine coated 96-well plates at a density of 80,000 cells per well and incubated at 37° C. overnight to allow the cells to adhere. Cells were washed twice with HBSS and incubated for 1 h at 37° C. in 100 μl HBSS and 100 μl calcium-3-dye (Molecular Devices), supplemented with 4 mM probenecid. Changes in fluorescence were monitored over a 50 s time course with agonist addition at 17 s using a Flexstation (Molecular Devices).
row,Structure (SMILES),EC50
1,"CCCCC[C@H](O)/C=C/[C@H]1C(=O)C[C@H](O)[C@@H]1C/C=C\CCCC(=O)O [PGD2, prostaglandin D2, reference compound]",2.4 ± 0.5 nM

# Same assay, conditions: read-out: IC50, inhibition of PGD2-induced calcium flux
row,IC50,Structure (SMILES)
1,11 ± 6 nM,"Cc1c(Cc2ccc3cccc(O)c3n2)c2cc(F)ccc2n1CC(=O)O [Compound 8, [5-Fluoro-3-(8-hydroxy-quinolin-2-ylmethyl)-2-methyl-indol-1-yl]-acetic acid]"
2,47 ± 8 nM,"COc1ccc(Cc2c(C)n(CC(=O)O)c3ccc(F)cc23)cc1 [Compound 10, [5-Fluoro-3-(4-methoxy-benzyl)-2-methyl-indol-1-yl]-acetic acid]"
3,55 ± 18 nM,"Cc1c(C(C)c2ccc(S(C)(=O)=O)cc2)c2cc(F)ccc2n1CC(=O)O (stereo not shown) [Compound 4, {5-Fluoro-3-[1-(4-methanesulfonyl-phenyl)-ethyl]-2-methyl-indol-1-yl}-acetic acid]"
4,108 ± 29 nM,"Cc1c(Cc2ccc(Cl)cc2)c2cc(F)ccc2n1CC(=O)O [Compound 12, [3-(4-Chloro-benzyl)-5-fluoro-2-methyl-indol-1-yl]-acetic acid]"

# Continued, compound first:
row,Structure (SMILES),IC50
1,"Cc1c(Cc2ccc(S(C)(=O)=O)cc2)c2cc(F)ccc2n1CC(=O)O [Compound 17, [5-Fluoro-3-(4-methanesulfonyl-benzyl)-2-methyl-indol-1-yl]-acetic acid]",64 ± 5 nM
2,"Cc1c(C(C)c2nc3ccccc3s2)c2cc(F)ccc2n1CC(=O)O (racemic) [Compound 19, (±)-3-(1-Benzothiazol-2-yl-ethyl)-5-fluoro-2-methyl-indol-1-yl]-acetic acid]",34 ± 7 nM
3,"Cc1c(Cc2ccc3cc(F)ccc3n2)c2cc(F)ccc2n1CC(=O)O [Compound 18, [5-Fluoro-3-(6-fluoro-quinolin-2-ylmethyl)-2-methyl-indol-1-yl]-acetic acid]",10 ± 5 nM
4,"Cc1c(Cc2ccc3ccccc3c2)c2cc(F)ccc2n1CC(=O)O [Compound 7, (5-Fluoro-2-methyl-3-naphthalen-2-ylmethyl-indol-1-yl)-acetic acid]",38 ± 16 nM
5,"O=C(O)Cn1cc(Cc2nc3c(F)c(F)cc(F)c3s2)c2ccccc21 [Compound 20, [3-(4,5,7-Trifluoro-benzothiazol-2-ylmethyl)-indol-1-yl]-acetic acid, reference compound]",885 ± 96 nM

# Biological target: T2, DP receptor (Homo sapiens, UniProt Q13258)
# T2 construct: expressed in transfected cells; host or cells: Chinese Hamster Ovary (CHO) cells, G418-selected (CHO/DP)
# T2 sequence (Q13258 1-359): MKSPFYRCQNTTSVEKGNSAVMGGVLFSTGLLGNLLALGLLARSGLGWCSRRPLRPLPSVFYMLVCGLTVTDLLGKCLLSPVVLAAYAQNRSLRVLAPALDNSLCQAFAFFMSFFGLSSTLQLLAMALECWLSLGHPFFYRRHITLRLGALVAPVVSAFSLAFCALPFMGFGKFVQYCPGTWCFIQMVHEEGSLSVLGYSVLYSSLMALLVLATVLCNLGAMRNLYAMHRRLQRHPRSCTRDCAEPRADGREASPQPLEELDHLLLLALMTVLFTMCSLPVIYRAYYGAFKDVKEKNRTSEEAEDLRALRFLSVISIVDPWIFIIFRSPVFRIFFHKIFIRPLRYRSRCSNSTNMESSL
# Test: [3H]PGD2 radioligand binding on CHO/DP cell membranes
# Conditions: competition versus [3H]PGD2, CHO/DP membranes
# Procedure: as §1, §2, §3
row,Ki,Structure (SMILES)
1,7710 ± 1780 nM,"Cc1c(Cc2ccc3cccc(O)c3n2)c2cc(F)ccc2n1CC(=O)O [Compound 8, [5-Fluoro-3-(8-hydroxy-quinolin-2-ylmethyl)-2-methyl-indol-1-yl]-acetic acid]"
2,30400 ± 9810 nM,"Cc1c(C(C)c2ccc(S(C)(=O)=O)cc2)c2cc(F)ccc2n1CC(=O)O (stereo not shown) [Compound 4, {5-Fluoro-3-[1-(4-methanesulfonyl-phenyl)-ethyl]-2-methyl-indol-1-yl}-acetic acid]"
3,17900 ± 7290 nM,"Cc1c(Cc2ccc3ccccc3n2)c2cc(F)ccc2n1CC(=O)O [Compound 6, (5-Fluoro-2-methyl-3-quinolin-2-ylmethyl-indol-1-yl)-acetic acid]"
4,12200 ± 2250 nM,"Cc1c(Cc2ccc(Cl)cc2)c2cc(F)ccc2n1CC(=O)O [Compound 12, [3-(4-Chloro-benzyl)-5-fluoro-2-methyl-indol-1-yl]-acetic acid]"

# The remaining lines, values behind:
row,Structure (SMILES),Ki
1,"Cc1c(Cc2ccc3cc(F)ccc3n2)c2cc(F)ccc2n1CC(=O)O [Compound 18, [5-Fluoro-3-(6-fluoro-quinolin-2-ylmethyl)-2-methyl-indol-1-yl]-acetic acid]",7740 ± 1440 nM
2,"O=C(O)Cn1cc(Cc2nc3c(F)c(F)cc(F)c3s2)c2ccccc21 [Compound 20, [3-(4,5,7-Trifluoro-benzothiazol-2-ylmethyl)-indol-1-yl]-acetic acid, reference compound]",3960 nM
